Measurements taken from patent US9637483B2, “Heterocyclic compound” (TAKEDA PHARMACEUTICAL COMPANY LIMITED, priority 2013, dated 2017).

Assays:
Format in all cases: biochemical
JAK3 = biological target: T1, JAK3 (Homo sapiens, UniProt P52333); assay: JAK3 enzyme inhibition test (LANCE method); conditions: 1 μM test compound; for inhibition at 1 µM: read-out: JAK3 enzyme inhibitory activity (%, 1 μM)
T1 construct: purchased Invitrogen
T1 sequence (P52333 1-1124): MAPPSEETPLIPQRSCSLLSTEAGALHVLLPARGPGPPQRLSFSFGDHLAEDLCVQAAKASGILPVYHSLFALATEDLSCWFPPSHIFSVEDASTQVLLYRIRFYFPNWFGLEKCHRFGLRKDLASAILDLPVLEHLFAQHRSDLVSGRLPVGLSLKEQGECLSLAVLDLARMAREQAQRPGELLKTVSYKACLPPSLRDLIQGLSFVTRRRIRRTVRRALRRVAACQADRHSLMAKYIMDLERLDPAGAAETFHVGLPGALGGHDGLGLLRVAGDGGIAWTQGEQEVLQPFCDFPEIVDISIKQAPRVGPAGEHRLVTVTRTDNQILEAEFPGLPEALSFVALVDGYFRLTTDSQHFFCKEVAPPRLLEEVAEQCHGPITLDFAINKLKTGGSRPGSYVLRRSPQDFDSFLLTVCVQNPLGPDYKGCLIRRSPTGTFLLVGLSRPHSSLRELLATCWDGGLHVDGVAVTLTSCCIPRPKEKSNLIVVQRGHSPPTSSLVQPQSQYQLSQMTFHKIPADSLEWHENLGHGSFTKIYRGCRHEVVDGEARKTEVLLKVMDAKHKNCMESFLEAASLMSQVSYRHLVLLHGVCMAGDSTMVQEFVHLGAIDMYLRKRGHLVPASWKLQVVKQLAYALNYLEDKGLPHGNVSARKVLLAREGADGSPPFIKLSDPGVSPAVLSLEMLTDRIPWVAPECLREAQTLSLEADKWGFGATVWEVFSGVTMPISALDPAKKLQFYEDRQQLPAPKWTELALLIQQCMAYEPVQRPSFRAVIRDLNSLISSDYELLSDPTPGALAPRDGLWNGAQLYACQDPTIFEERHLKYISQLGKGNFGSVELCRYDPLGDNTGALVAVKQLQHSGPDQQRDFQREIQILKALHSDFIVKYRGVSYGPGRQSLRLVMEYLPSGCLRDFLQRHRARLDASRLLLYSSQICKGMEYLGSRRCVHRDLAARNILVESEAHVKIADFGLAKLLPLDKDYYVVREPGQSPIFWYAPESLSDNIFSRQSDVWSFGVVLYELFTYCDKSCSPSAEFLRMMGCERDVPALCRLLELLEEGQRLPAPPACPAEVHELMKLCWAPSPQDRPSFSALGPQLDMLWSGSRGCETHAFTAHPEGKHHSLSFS
Outline: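 TR-FRET (LANCE) read: 1 h room-temperature reaction, EDTA quench, Eu-anti-phosphotyrosine antibody, emission 665 nm after 340 nm excitation. Added solutions held 12 ng/mL JAK3, 300 nM ULight-JAK1 substrate and 15 μM ATP (pH 7.5 HEPES). Activity expressed against no-enzyme wells defined as full inhibition.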

JAK1 = biological target: T2, JAK1 (Homo sapiens, UniProt P23458); assay: JAK1 enzyme inhibition test (LANCE method); conditions: 1 μM test compound; for inhibition at 1 µM: read-out: JAK1 enzyme inhibitory activity (%, 1 μM)
T2 construct: purchased Invitrogen
Outline: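 Inhibition expressed against no-enzyme wells (100% inhibition), from time-resolved fluorescence at 665 nm after Eu-anti-phosphotyrosine antibody/EDTA detection. Kinase reaction ran 1 h at room temperature, pH 7.5 HEPES buffer, ULight-JAK1 substrate and ATP diluted to 300 nM and 150 μM before addition.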

TYK2 = biological target: T3, TYK2 (Homo sapiens, UniProt P29597); assay: TYK2 enzyme inhibition test (LANCE method); conditions: 1 μM test compound; for inhibition at 1 µM: read-out: TYK2 enzyme inhibitory activity (%, 1 μM)
T3 construct: purchased Invitrogen
Outline: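 TR-FRET (LANCE) readout: after 1 h room-temperature kinase reaction, EDTA plus 4 nM Eu-labelled anti-phosphotyrosine antibody added, signal at 665 nm (340 nm excitation). Reaction combined TYK2, ULight-JAK1 substrate and ATP, prepared at 375 ng/mL, 300 nM and 30 μM before addition, in pH 7.5 HEPES/MgCl2 buffer; enzyme-free wells define full inhibition.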

JAK2 = biological target: T4, JAK2 (Homo sapiens, UniProt O60674); assay: JAK2 enzyme inhibition test (LANCE method); conditions: 1 μM test compound; for inhibition at 1 µM: read-out: JAK2 enzyme inhibitory activity (%, 1 μM)
T4 construct: purchased Invitrogen
Outline: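 TR-FRET (LANCE) read-out, ex 340/em 665 nm with 100 μs delay, after 1 hr room-temperature detection with europium anti-phosphotyrosine antibody and 20 mM EDTA. The preceding 1 hr kinase reaction combined JAK2, ULight-JAK1 substrate and ATP, added as 6 ng/mL, 300 nM and 45 μM solutions; enzyme-free wells defined 100% inhibition.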

T2 sequence (P23458 whole entry): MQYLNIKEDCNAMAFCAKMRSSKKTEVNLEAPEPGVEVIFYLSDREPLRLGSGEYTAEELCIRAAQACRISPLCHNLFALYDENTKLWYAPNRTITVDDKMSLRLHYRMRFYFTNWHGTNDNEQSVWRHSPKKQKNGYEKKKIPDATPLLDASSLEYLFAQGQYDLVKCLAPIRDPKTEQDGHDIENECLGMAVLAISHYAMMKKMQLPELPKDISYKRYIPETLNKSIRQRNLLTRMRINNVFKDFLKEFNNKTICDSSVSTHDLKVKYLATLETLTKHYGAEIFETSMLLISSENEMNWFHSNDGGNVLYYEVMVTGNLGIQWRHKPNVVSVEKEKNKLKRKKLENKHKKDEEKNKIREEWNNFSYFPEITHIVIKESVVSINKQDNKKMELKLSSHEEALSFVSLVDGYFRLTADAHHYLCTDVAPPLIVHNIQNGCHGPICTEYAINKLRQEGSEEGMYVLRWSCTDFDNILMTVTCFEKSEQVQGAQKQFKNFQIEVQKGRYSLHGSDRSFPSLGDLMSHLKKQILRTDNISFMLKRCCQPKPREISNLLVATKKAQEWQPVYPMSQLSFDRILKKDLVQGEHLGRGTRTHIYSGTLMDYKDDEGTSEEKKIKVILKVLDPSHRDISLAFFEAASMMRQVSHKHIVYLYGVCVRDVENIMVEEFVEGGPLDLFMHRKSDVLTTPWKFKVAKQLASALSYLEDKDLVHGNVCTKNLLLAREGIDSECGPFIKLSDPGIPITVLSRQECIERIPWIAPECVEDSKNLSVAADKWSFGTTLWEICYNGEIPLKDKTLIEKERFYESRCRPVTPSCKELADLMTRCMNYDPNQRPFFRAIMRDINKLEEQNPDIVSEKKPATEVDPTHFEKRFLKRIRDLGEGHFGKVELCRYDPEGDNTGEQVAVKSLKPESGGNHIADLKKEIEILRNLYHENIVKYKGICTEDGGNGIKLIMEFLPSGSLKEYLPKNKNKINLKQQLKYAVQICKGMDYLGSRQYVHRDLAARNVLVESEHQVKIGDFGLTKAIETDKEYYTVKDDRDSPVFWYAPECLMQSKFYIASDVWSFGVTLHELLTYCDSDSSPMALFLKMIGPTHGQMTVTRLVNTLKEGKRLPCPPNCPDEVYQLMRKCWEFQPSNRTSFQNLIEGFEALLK
T4 sequence (O60674 whole entry): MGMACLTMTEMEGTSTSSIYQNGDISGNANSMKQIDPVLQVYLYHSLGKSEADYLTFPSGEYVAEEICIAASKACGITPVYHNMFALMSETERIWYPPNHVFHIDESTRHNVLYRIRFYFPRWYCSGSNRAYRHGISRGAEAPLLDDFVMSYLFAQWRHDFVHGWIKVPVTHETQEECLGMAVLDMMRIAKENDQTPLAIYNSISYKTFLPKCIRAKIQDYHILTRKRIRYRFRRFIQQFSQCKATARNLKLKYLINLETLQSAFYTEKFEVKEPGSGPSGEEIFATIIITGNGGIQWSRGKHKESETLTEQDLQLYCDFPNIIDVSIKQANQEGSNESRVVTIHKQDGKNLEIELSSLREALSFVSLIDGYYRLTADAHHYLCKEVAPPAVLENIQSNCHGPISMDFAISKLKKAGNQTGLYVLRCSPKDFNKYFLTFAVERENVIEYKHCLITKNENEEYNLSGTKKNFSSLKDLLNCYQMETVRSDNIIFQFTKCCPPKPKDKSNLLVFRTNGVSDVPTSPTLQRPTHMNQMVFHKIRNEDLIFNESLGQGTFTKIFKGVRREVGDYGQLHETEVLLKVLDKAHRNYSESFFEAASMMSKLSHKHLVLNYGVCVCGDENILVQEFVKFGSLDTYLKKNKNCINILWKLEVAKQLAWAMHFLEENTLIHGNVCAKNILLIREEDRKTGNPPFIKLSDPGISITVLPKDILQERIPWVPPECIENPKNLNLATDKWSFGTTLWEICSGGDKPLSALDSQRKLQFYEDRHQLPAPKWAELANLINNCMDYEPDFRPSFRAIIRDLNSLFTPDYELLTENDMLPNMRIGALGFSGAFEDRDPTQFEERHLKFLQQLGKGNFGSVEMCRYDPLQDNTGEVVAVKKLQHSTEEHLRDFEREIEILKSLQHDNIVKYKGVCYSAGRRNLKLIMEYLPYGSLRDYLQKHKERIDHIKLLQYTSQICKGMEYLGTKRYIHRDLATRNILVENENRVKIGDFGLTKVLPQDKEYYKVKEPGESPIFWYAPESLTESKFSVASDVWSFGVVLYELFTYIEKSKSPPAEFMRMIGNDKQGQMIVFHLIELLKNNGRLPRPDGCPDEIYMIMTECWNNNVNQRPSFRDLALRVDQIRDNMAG
T3 sequence (P29597 whole entry): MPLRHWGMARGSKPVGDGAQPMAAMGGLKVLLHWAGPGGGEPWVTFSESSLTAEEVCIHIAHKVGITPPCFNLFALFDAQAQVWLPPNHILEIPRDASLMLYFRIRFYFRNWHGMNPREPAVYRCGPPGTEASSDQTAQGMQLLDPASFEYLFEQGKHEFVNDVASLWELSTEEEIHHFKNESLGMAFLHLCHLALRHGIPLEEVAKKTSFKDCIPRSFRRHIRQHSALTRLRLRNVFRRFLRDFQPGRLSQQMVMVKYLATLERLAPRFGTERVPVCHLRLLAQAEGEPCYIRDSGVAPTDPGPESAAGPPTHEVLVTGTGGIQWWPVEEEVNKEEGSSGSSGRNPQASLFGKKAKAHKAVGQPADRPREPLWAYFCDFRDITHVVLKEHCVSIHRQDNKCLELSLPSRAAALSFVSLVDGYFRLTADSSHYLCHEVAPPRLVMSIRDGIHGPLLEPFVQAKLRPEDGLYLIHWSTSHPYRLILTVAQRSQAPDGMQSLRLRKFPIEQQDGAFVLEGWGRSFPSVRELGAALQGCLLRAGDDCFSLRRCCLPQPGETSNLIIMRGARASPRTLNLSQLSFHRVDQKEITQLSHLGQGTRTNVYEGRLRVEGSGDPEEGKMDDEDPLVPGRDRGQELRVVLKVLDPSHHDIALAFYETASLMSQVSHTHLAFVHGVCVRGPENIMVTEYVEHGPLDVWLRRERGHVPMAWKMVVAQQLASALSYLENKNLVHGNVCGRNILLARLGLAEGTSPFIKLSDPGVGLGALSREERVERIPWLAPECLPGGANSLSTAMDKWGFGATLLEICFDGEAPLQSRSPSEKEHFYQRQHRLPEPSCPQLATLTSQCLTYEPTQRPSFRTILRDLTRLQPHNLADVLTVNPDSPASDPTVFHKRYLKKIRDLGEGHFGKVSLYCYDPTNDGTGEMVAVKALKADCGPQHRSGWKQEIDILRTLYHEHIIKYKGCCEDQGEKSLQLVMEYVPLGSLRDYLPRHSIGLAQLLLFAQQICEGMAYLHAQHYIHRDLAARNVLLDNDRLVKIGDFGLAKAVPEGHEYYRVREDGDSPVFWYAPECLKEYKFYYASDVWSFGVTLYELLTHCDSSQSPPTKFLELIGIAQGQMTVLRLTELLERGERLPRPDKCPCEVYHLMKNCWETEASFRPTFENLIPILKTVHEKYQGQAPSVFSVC

inhibition at 1 µM (JAK3) [%] | inhibition at 1 µM (TYK2) [%] | inhibition at 1 µM (JAK2) [%] | inhibition at 1 µM (JAK1) [%] | further results | Structure (SMILES)
99 | 99 | 100 | – | JAK1 enzyme inhibitory activity (%, 1 μM) (JAK1; 1 µM): 98% | Cn1nc(-c2cn(C3CCCC3(C)C)c(=O)c3c(N)n[nH]c23)cc1CN1CCS(=O)(=O)CC1 (stereo not drawn) [Example 74, 3-amino-5-(2,2-dimethylcyclopentyl)-7-(5-((1,1-dioxidothiomorpholin-4-yl)methyl)-1-methyl-1H-pyrazol-3-yl)-1,5-dihydro-4H-pyrazolo[4,3-c]pyridin-4-one]
– | – | – | – | JAK3 enzyme inhibitory activity (%, 1 μM) (JAK3; 1 µM): 93%; JAK1 enzyme inhibitory activity (%, 1 μM) (JAK1; 1 µM): 66%; TYK2 enzyme inhibitory activity (%, 1 μM) (TYK2; 1 µM): 92%; JAK2 enzyme inhibitory activity (%, 1 μM) (JAK2; 1 µM): 87% | Cn1nc(-c2cn(C3CCCC3(C)C)c(=O)c3c(N)n[nH]c23)cc1CN1CCS(=O)(=O)CC1 (stereo not drawn) [Example 75, 3-amino-5-(2,2-dimethylcyclopentyl)-7-(5-((1,1-dioxidothiomorpholin-4-yl)methyl)-1-methyl-1H-pyrazol-3-yl)-1,5-dihydro-4H-pyrazolo[4,3-c]pyridin-4-one]
100 | 100 | 99 | 99 | – | Cn1nc(-c2cn(C3CCCC3(C)C)c(=O)c3c(N)n[nH]c23)cc1N1CCOCC1 (stereo not drawn) [Example 76, 3-amino-5-(2,2-dimethylcyclopentyl)-7-(1-methyl-5-(morpholin-4-yl)-1H-pyrazol-3-yl)-1,5-dihydro-4H-pyrazolo[4,3-c]pyridin-4-one]
– | – | – | – | JAK3 enzyme inhibitory activity (%, 1 μM) (JAK3; 1 µM): 90%; JAK1 enzyme inhibitory activity (%, 1 μM) (JAK1; 1 µM): 79%; TYK2 enzyme inhibitory activity (%, 1 μM) (TYK2; 1 µM): 96%; JAK2 enzyme inhibitory activity (%, 1 μM) (JAK2; 1 µM): 84% | Cn1nc(-c2cn(C3CCCC3(C)C)c(=O)c3c(N)n[nH]c23)cc1N1CCOCC1 (stereo not drawn) [Example 77, 3-amino-5-(2,2-dimethylcyclopentyl)-7-(1-methyl-5-(morpholin-4-yl)-1H-pyrazol-3-yl)-1,5-dihydro-4H-pyrazolo[4,3-c]pyridin-4-one]
100 | 99 | 99 | 98 | – | Cn1nc(-c2cn(C(C3CC3)C3CC3)c(=O)c3c(N)n[nH]c23)cc1N1CCS(=O)(=O)CC1 [Example 78, 3-amino-5-(dicyclopropylmethyl)-7-(5-(1,1-dioxidothiomorpholin-4-yl)-1-methyl-1H-pyrazol-3-yl)-1,5-dihydro-4H-pyrazolo[4,3-c]pyridin-4-one]
100 | 99 | 99 | 99 | – | Cn1nc(-c2cn(C(C3CC3)C3CC3)c(=O)c3c(N)n[nH]c23)cc1N1CCOCC1 [Example 79, 3-amino-5-(dicyclopropylmethyl)-7-(1-methyl-5-(morpholin-4-yl)-1H-pyrazol-3-yl)-1,5-dihydro-4H-pyrazolo[4,3-c]pyridin-4-one]
98 | 99 | 91 | 89 | – | CC(C)C(C(F)F)n1cc(-c2cc(N3CCOCC3)n(C)n2)c2[nH]nc(N)c2c1=O (stereo not drawn) [Example 80, 3-amino-5-(1,1-difluoro-3-methylbutan-2-yl)-7-(1-methyl-5-(morpholin-4-yl)-1H-pyrazol-3-yl)-1,5-dihydro-4H-pyrazolo[4,3-c]pyridin-4-one]
100 | 99 | 100 | 99 | – | CC(n1cc(-c2cc(N3CCOCC3)n(C)n2)c2[nH]nc(N)c2c1=O)C1(C)CC1 (stereo not drawn) [Example 81, 3-amino-5-(1-(1-methylcyclopropyl)ethyl)-7-(1-methyl-5-(morpholin-4-yl)-1H-pyrazol-3-yl)-1,5-dihydro-4H-pyrazolo[4,3-c]pyridin-4-one]
97 | 99 | 87 | 89 | – | CC(C)C(n1cc(-c2cc(N3CCOCC3)n(C)n2)c2[nH]nc(N)c2c1=O)C(F)(F)F (stereo not drawn) [Example 82, 3-amino-7-(1-methyl-5-(morpholin-4-yl)-1H-pyrazol-3-yl)-5-(1,1,1-trifluoro-3-methylbutan-2-yl)-1,5-dihydro-4H-pyrazolo[4,3-c]pyridin-4-one]
100 | 100 | 100 | 99 | – | Cn1nc(-c2cn(C(C3CC3)C(F)(F)F)c(=O)c3c(N)n[nH]c23)cc1N1CCOCC1 (stereo not drawn) [Example 83, 3-amino-5-(1-cyclopropyl-2,2,2-trifluoroethyl)-7-(1-methyl-5-(morpholin-4-yl)-1H-pyrazol-3-yl)-1,5-dihydro-4H-pyrazolo[4,3-c]pyridin-4-one]
97 | 83 | 87 | 84 | – | CCOC(=O)C(C(C)C)n1cc(-c2cc(N3CCOCC3)n(C)n2)c2[nH]nc(N)c2c1=O (stereo not drawn) [Example 84, ethyl 2-(3-amino-7-(1-methyl-5-(morpholin-4-yl)-1H-pyrazol-3-yl)-4-oxo-1,4-dihydro-5H-pyrazolo[4,3-c]pyridin-5-yl)-3-methylbutanoate]
89 | 89 | 86 | 68 | – | CC(C)C(C(N)=O)n1cc(-c2cc(N3CCOCC3)n(C)n2)c2[nH]nc(N)c2c1=O (stereo not drawn) [Example 85, 2-(3-amino-7-(1-methyl-5-(morpholin-4-yl)-1H-pyrazol-3-yl)-4-oxo-1,4-dihydro-5H-pyrazolo[4,3-c]pyridin-5-yl)-3-methylbutanamide]
– | – | – | – | JAK3 enzyme inhibitory activity (%, 1 μM) (JAK3): 99%; JAK1 enzyme inhibitory activity (%, 1 μM) (JAK1): 98%; TYK2 enzyme inhibitory activity (%, 1 μM) (TYK2): 100%; JAK2 enzyme inhibitory activity (%, 1 μM) (JAK2): 98% | CC(C)[C@H](C)n1cc(-c2cc(C(C)(C)O)n(C)n2)c2[nH]nc(N)c2c1=O.Cl [Example 86, 3-amino-7-(5-(2-hydroxypropan-2-yl)-1-methyl-1H-pyrazol-3-yl)-5-((2S)-3-methylbutan-2-yl)-1,5-dihydro-4H-pyrazolo[4,3-c]pyridin-4-one hydrochloride]
99 | 99 | 100 | 99 | – | Cn1nc(-c2cn(C(C3CC3)C3CC3)c(=O)c3c(N)n[nH]c23)cc1N1CCS(=O)(=O)C(C)(C)C1 [Example 88, 3-amino-5-(dicyclopropylmethyl)-7-(5-(2,2-dimethyl-1,1-dioxidothiomorpholin-4-yl)-1-methyl-1H-pyrazol-3-yl)-1,5-dihydro-4H-pyrazolo[4,3-c]pyridin-4-one]
99 | 100 | 99 | 97 | – | COC1(c2cc(-c3cn(C(C4CC4)C4CC4)c(=O)c4c(N)n[nH]c34)nn2C)CN(C(=O)C(C)C)C1 [Example 89, 3-amino-5-(dicyclopropylmethyl)-7-(5-(1-isobutyryl-3-methoxyazetidin-3-yl)-1-methyl-1H-pyrazol-3-yl)-1,5-dihydro-4H-pyrazolo[4,3-c]pyridin-4-one]
